*1 amine or outer side, *2 acyl side, *3 side chain or, on linkers, in order; H or OH if unused. Where a SMILES comes first, the peptide text is derived from it. Bridges are numbered along the chain shown (N, C = ends). [ ]: non-standard residue; d: D form. The star is where a group is joined. ξ: configuration not given here. Ala(piperidin-4-yl) = O=C([C@H](CC1CCN([*:3])CC1)N[*:1])[*:2]; DOTA = O=C(O)CN1CCN(CC(=O)O)CCN(CC(=O)*)CCN(CC(=O)O)CC1; Trp(7-Me) = Cc1cccc2c(C[C@H](N)C(=O)O)c[nH]c12; Bip = N[C@@H](Cc1ccc(-c2ccccc2)cc1)C(=O)O; 2Nal = N[C@@H](Cc1ccc2ccccc2c1)C(=O)O; Gly(4-THP) = N[C@H](C(=O)O)C1CCOCC1; Chg = N[C@H](C(=O)O)C1CCCCC1; CH2 = C([*:1])[*:2]; ξC = NC(CS)C(=O)O

For the test, the target named is T1, DLL3 (Homo sapiens, UniProt Q9NYJ7).
T1 sequence (Q9NYJ7 27-618): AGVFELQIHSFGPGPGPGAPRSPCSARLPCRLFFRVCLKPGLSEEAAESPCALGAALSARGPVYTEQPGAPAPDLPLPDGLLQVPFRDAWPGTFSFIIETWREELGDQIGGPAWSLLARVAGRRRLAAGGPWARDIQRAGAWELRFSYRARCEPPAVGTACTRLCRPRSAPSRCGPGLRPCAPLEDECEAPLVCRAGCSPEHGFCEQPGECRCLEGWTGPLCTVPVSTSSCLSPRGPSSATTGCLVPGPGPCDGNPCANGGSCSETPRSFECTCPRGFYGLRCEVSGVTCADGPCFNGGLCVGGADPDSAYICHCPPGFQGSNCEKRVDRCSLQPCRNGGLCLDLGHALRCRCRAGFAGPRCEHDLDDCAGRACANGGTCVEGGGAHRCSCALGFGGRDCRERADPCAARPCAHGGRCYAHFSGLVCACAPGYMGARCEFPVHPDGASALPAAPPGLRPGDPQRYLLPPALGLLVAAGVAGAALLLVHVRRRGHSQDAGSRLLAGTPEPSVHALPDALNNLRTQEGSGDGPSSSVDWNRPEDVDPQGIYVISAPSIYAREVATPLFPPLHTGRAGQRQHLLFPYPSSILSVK
Put plainly: SPR KD, biotinylated human DLL3 on streptavidin chip (Table 8). Set-up: biotin (biotinylated). The conditions noted are these: biotinylated human DLL3 on streptavidin sensor chip, 25° C., 1:1 binding model; read-out: SPR KD. The source says:
Biotinylated target ligand human DLL3 was immobilized on a streptavidin sensor chip. A reference surface was set up for nonspecific binding and refractive index changes. […] Sensorgram curves were fitted with 1:1 binding model, and affinity and kinetic parameters were obtained using Biacore Insight evaluation 4.0. software.

`CC[C@H](C)[C@H](NC(=O)[C@@H](NC(=O)[C@H](Cc1ccc(-c2ccccc2)cc1)NC(C)=O)[C@@H](C)O)C(=O)N[C@H]1CSSC[C@@H](C(=O)N[C@@H](Cc2c[nH]c3ccccc23)C(=O)N2CCC[C@H]2C(=O)O)NC(=O)[C@H](CC(=O)O)NC(=O)[C@H](Cc2c[nH]cn2)NC(=O)[C@H](Cc2c[nH]c3ccccc23)NC(=O)[C@H](CC(N)=O)NC(=O)[C@H](CC(N)=O)NC1=O` [compound 333, Ac-(BIP)-T-I-C(3)-N-N-W-H-D-C(3)-W-P-CONH2] (Ac-[Bip]TICNNWHDCWP-OH; disulfide 4-10): the equilibrium dissociation constant (Kd) fell in the range of 100 to 300 nM.
As for `CC(=O)N[C@@H](Cc1c[nH]c2c(C)cccc12)C(=O)N[C@H](C(=O)N[C@H](C(=O)N[C@H]1CSCSC[C@@H](C(=O)N[C@@H](Cc2c[nH]c3ccccc23)C(=O)N2CCC[C@H]2C(N)=O)NC(=O)[C@H](CC(=O)O)NC(=O)[C@H](CCCCNC(=O)CN2CCN(CC(=O)O)CCN(CC(=O)O)CCN(CC(=O)O)CC2)NC(=O)[C@H](Cc2ccc3ccccc3c2)NC(=O)[C@H](CC(N)=O)NC(=O)[C@H](CC2CCNCC2)NC1=O)C1CCCCC1)[C@@H](C)O` [compound 428, Ac-(7Me-Trp)-T-(Chg)-C(1)-[3-(4-piperidinyl)-Ala]-N-(2Nal)-Lys(DOTA)-D-C(1)-W-P-NH2] (Ac-[Trp(7-Me)]T[Chg]C[Ala(piperidin-4-yl)]N[2Nal]K(DOTA)DCWP-NH2; linker 4-10 via CH2), the figure is below 1 nM; as for `CC(=O)N[C@@H](Cc1c[nH]c2ccccc12)C(=O)N[C@H](C(=O)N[C@H](C(=O)N[C@H]1CSCSC[C@@H](C(=O)N[C@@H](Cc2c[nH]c3ccccc23)C(=O)N2CCC[C@H]2C(N)=O)NC(=O)[C@H]([C@@H](C)O)NC(=O)[C@H](CCCCNC(=O)CN2CCN(CC(=O)O)CCN(CC(=O)O)CCN(CC(=O)O)CC2)NC(=O)[C@H](Cc2ccc3ccccc3c2)NC(=O)[C@H](CC(N)=O)NC(=O)[C@H](CC2CCNCC2)NC1=O)C1CCCCC1)[C@@H](C)O` [compound 399, Ac-W-T-(Chg)-C(1)-[3-(4-piperidinyl)-Ala]-N-(2Nal)-Lys(DOTA)-(Thr)-C(1)-W-P-CONH2] (Ac-WT[Chg]C[Ala(piperidin-4-yl)]N[2Nal]K(DOTA)TCWP-NH2; linker 4-10 via CH2), below 1 nM; as for `CCC(C)(C)[C@H](NC(=O)[C@@H](NC(=O)[C@H](Cc1c[nH]c2ccccc12)NC(C)=O)[C@@H](C)O)C(=O)N[C@H]1CSSC[C@@H](C(=O)N[C@@H](Cc2c[nH]c3ccccc23)C(=O)N2CCC[C@H]2C(N)=O)NC(=O)[C@H](CC(=O)O)NC(=O)[C@H](CCCCNC(=O)CN2CCN(CC(=O)O)CCN(CC(=O)O)CCN(CC(=O)O)CC2)NC(=O)[C@H](Cc2ccc3ccccc3c2)NC(=O)[C@H](CC(N)=O)NC(=O)C(CN2CCOCC2)NC1=O` (single isomer, unassigned) [compound 311, Ac-W-T-(α-tert-amylGly)-C(3)-[3-(1-morpholinyl)-Ala]-N-(2Nal)-Lys(DOTA)-D-C(3)-W-P-CONH2], below 1 nM.
The result for `CC(=O)N[C@@H](Cc1c[nH]c2ccccc12)C(=O)N[C@H](C(=O)N[C@H](C(=O)N[C@H]1CSSCC(C(=O)N[C@@H](Cc2c[nH]c3ccccc23)C(=O)N2CCC[C@H]2C(N)=O)NC(=O)[C@H]([C@@H](C)O)NC(=O)[C@@H](CCCCNC(=O)CN2CCN(CC(=O)O)CCN(CC(=O)O)CCN(CC(=O)O)CC2)NC(=O)[C@H](Cc2ccc3ccccc3c2)NC(=O)[C@H](CC(N)=O)NC(=O)[C@H](CC2CCNCC2)NC1=O)C1CCOCC1)[C@@H](C)O` (some centres unmarked) [compound 328, Ac-W-T-(THPG)-C(3)-[3-(4-piperidinyl)-Ala]-N-(2Nal)-Lys(DOTA)-(Thr)-C(3)-W-P-CONH2] (Ac-WT[Gly(4-THP)]C[Ala(piperidin-4-yl)]N[2Nal][dK](DOTA)T[ξC]WP-NH2; disulfide 4-10) reads below 1 nM.

In general, Kd refers to a measure of binding affinity in units of concentration.
